Results taken from ChEMBL document CHEMBL4229479, “Synthesis and evaluation of panaxatriol derivatives as Na+, K+-ATPase inhibitors” (Bioorg Med Chem Lett, 2018).

Tested on: not listed separately
Assay: Arrhythmogenic activity in Langendorff-perfused heart rat model at 0.26 umol/L administered for 30 mins following 60 mins perfusion with K-H solution
Type: toxicity, tissue-based
Settings: 0.5 h, 0.26 µM

Row | SMILES | Activity [%]
1 | C[C@H]1O[C@@H](O[C@H]2[C@@H](O)C[C@H](O[C@H]3[C@@H](O)C[C@H](O[C@H]4CC[C@@]5(C)[C@H](CC[C@@H]6[C@@H]5C[C@@H](O)[C@]5(C)[C@@H](C7=CC(=O)OC7)CC[C@]65O)C4)O[C@@H]3C)O[C@@H]2C)C[C@H](O)[C@@H]1O [DIGOXIN] | 50
2 | COC(=O)CC[C@]1(C)[C@H]2C[C@@H](O)[C@@H]3[C@@H]([C@@]4(C)CCCC(C)(C)O4)CC[C@@]3(C)[C@]2(C)CC(=O)[C@H]1C(C)(C)O | 0

Target: Sodium/potassium-transporting ATPase
Assay: Inhibition of human Na+/K+-ATPase assessed as reduction in inorganic phosphate release from ATP incubated for 15 mins followed by ATP addition measured over 15 mins in presence of Na+/K+ by colorimetric method
Type: protein-complex assay
Settings: not given

Row | IC50 [nM] | SMILES
3 | 870 | CC1(C)CCC[C@](C)([C@H]2CC[C@]3(C)[C@@H]2[C@H](OCc2ccccc2)C[C@@H]2[C@@]4(C)CCC(=O)C(C)(C)[C@@H]4[C@@H](OCc4ccccc4)C[C@]23C)O1
4 | 700 | CC1(C)CCC[C@](C)([C@H]2CC[C@]3(C)[C@@H]2C(=O)C[C@@H]2[C@@]4(C)CCC(=O)C(C)(C)[C@@H]4[C@@H](O)C[C@]23C)O1
5 | 750 | C=CCO[C@H]1C[C@]2(C)[C@H](C[C@@H](OCC=C)[C@@H]3[C@@H]([C@@]4(C)CCCC(C)(C)O4)CC[C@]32C)[C@@]2(C)CCC(=O)C(C)(C)[C@H]12
6 | 1180 | CC1(C)CCC[C@](C)([C@H]2CC[C@]3(C)[C@@H]2[C@H](O)C[C@@H]2[C@@]4(C)CCC(=O)OC(C)(C)[C@@H]4C(=O)C[C@]23C)O1
7 | 410 | COC(=O)CC[C@@]1(C)CC(=O)C[C@]2(C)[C@@H]1C[C@@H](O)[C@@H]1[C@@H]([C@@]3(C)CCCC(C)(C)O3)CC[C@]12C
8 | 910 | CC1(C)CCC[C@](C)([C@H]2CC[C@]3(C)[C@@H]2[C@H](O)C[C@@H]2[C@@]4(C)Cc5c([nH]c6ccc(F)cc56)C(C)(C)[C@@H]4C(=O)C[C@]23C)O1
9 | 1140 | CCO[C@H]1CC[C@]2(C)[C@H]3C[C@@H](O)[C@@H]4[C@@H]([C@@]5(C)CCCC(C)(C)O5)CC[C@@]4(C)[C@]3(C)CC(=O)[C@H]2C1(C)C
10 | 1180 | CC1(C)CCC[C@](C)([C@H]2CC[C@]3(C)[C@@H]2[C@H](O)C[C@@H]2[C@@]4(C)CC[C@H](O)C(C)(C)[C@@H]4C(=O)C[C@]23C)O1
11 | 540 | CC1(C)CCC[C@](C)([C@H]2CC[C@]3(C)[C@@H]2[C@H](O)C[C@@H]2[C@@](C)(CCC(=O)O)CC(=O)C[C@]23C)O1
12 | 770 | CC1(C)CCC[C@](C)([C@H]2CC[C@]3(C)[C@@H]2[C@H](O)C[C@@H]2[C@@]4(C)Cc5c([nH]c6ccccc56)C(C)(C)[C@@H]4C(=O)C[C@]23C)O1
13 | 1230 | CC1(C)CCC[C@](C)([C@H]2CC[C@]3(C)[C@@H]2C(=O)C[C@@H]2[C@@]4(C)CCC(=O)OC(C)(C)[C@@H]4[C@@H](O)C[C@]23C)O1
14 | 1380 | CCOC(=O)NC(=S)O[C@H]1CC[C@]2(C)[C@H]3C[C@@H](O)[C@@H]4[C@@H]([C@@]5(C)CCCC(C)(C)O5)CC[C@@]4(C)[C@]3(C)CC(=O)[C@H]2C1(C)C
15 | 760 | CC1(C)CCC[C@](C)([C@H]2CC[C@]3(C)[C@@H]2C(=O)C[C@@H]2[C@@]4(C)CCC(=O)C(C)(C)[C@@H]4C(=O)C[C@]23C)O1
16 | 260 | COC(=O)CC[C@]1(C)[C@H]2C[C@@H](O)[C@@H]3[C@@H]([C@@]4(C)CCCC(C)(C)O4)CC[C@@]3(C)[C@]2(C)CC(=O)[C@H]1C(C)(C)O
17 | 360 | CC1(C)CCC[C@](C)([C@H]2CC[C@]3(C)[C@@H]2[C@H](O)C[C@@H]2[C@@]4(C)Cc5c([nH]c6ccc(OC(F)(F)F)cc56)C(C)(C)[C@@H]4C(=O)C[C@]23C)O1
18 | 1140 | CC1(C)CCC[C@](C)([C@H]2CC[C@]3(C)[C@@H]2[C@H](O)C[C@@H]2[C@@]4(C)CCC(=O)C(C)(C)[C@@H]4[C@@H](O)C[C@]23C)O1

The next lines start with the compound.

Row | SMILES | IC50 [nM]
19 | CC1(C)CCC[C@](C)([C@H]2CC[C@]3(C)[C@@H]2[C@H](O)C[C@@H]2[C@@]4(C)CC[C@H](Oc5noc(=O)[nH]5)C(C)(C)[C@@H]4C(=O)C[C@]23C)O1 | 960
20 | C=CCO[C@H]1C[C@]2(C)[C@H](C[C@@H](O)[C@@H]3[C@@H]([C@@]4(C)CCCC(C)(C)O4)CC[C@]32C)[C@@]2(C)CCC(=O)C(C)(C)[C@H]12 | 910
21 | CC1(C)CCC[C@](C)([C@H]2CC[C@]3(C)[C@@H]2[C@H](O)C[C@@H]2[C@@]4(C)CC[C@H](OCc5ccc(OC(F)(F)F)cc5)C(C)(C)[C@@H]4C(=O)C[C@]23C)O1 | 450
22 | C=CCO[C@H]1CC[C@]2(C)[C@H]3C[C@@H](O)[C@@H]4[C@@H]([C@@]5(C)CCCC(C)(C)O5)CC[C@@]4(C)[C@]3(C)CC(=O)[C@H]2C1(C)C | 1050
23 | CC1(C)CCC[C@](C)([C@H]2CC[C@]3(C)[C@@H]2[C@H](O)C[C@@H]2[C@@]4(C)CC[C@H](OCc5ccccc5)C(C)(C)[C@@H]4C(=O)C[C@]23C)O1 | 300
24 | C=C(C)[C@@H]1C(=O)C[C@]2(C)[C@H](C[C@@H](O)[C@@H]3[C@@H]([C@@]4(C)CCCC(C)(C)O4)CC[C@]32C)[C@@]1(C)CCC(=O)OC | 1090
25 | CC1(C)CCC[C@](C)([C@H]2CC[C@]3(C)[C@@H]2C(=O)C[C@@H]2[C@@]4(C)CCC(=O)OC(C)(C)[C@@H]4C(=O)C[C@]23C)O1 | 1130
26 | CC1(C)CCC[C@](C)([C@H]2CC[C@]3(C)[C@@H]2[C@H](O)C[C@@H]2[C@@]4(C)CC[C@H](O)C(C)(C)[C@@H]4[C@@H](O)C[C@]23C)O1 [PANAXATRIOL] | 1090
27 | CC1(C)CCC[C@](C)([C@H]2CC[C@]3(C)[C@@H]2[C@H](O)C[C@@H]2[C@@]4(C)CCC(=O)C(C)(C)[C@@H]4[C@@H](OCc4ccccc4)C[C@]23C)O1 | 330
28 | CC1(C)CCC[C@](C)([C@H]2CC[C@]3(C)[C@@H]2[C@H](O)C[C@@H]2[C@@]4(C)CCC(=O)C(C)(C)[C@@H]4C(=O)C[C@]23C)O1 | 810
29 | CC1(C)CCC[C@](C)([C@H]2CC[C@]3(C)[C@@H]2[C@H](O)C[C@@H]2[C@@]4(C)CCC(=O)NC(C)(C)[C@@H]4C(=O)C[C@]23C)O1 | 410
